This assay deals with T1, human DGAT1 (Homo sapiens, UniProt O75907).
T1 construct: Full length human DGAT10RF (1467 bp); 6xHis (pFastBac HTa vector leader) (N); made in house; host or cells: Sf21 insect cells (baculovirus); microsome fraction
T1 sequence (O75907 1-488): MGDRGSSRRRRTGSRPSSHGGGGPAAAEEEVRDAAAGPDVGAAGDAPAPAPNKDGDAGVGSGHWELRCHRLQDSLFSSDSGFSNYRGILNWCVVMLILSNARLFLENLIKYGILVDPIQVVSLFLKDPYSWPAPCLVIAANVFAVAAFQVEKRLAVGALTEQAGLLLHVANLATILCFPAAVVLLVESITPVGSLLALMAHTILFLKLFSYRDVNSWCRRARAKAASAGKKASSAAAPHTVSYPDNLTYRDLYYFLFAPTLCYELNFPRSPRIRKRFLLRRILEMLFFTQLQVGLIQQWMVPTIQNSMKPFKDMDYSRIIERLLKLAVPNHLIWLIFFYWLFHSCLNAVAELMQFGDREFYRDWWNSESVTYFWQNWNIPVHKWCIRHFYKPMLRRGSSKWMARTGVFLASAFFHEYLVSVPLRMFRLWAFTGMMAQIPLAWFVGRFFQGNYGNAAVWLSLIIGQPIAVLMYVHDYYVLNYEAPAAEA
The experiment in a line: Evaluation of DGAT1 enzyme inhibition (14C-oleoyl CoA, TLC of triglyceride). The assay is classed as biochemical. To be noted: human DGAT1 microsomes from Sf21 cells, 30° C., 20 min. On the procedure: DGAT assays for compound screening were carried out in 96-well round bottom plates in a total volume of 50 μl containing 25 mM Hepes pH 7.4, 150 mM NaCl, 2 mM MgCl2, 20 mM sodium fluoride, 1 mM dithiothreitol, 0.5 mg/mL BSA, 0.1% Triton X100, 200 uM DAG (1,2-dioleoyl-sn-glycerol) and 15 μM [^14C] oleoyl CoA (specific activity 50-60 mCi/mmol) and a range of inhibitor concentrations in 1% DMSO. Reactions were initiated by the addition of human DGAT1 microsomes (0.4 μg/well) followed by incubation at 30° C. for 20 min. At the end of incubation, reactions were stopped by the addition of 5 μl 0.5N HCl, then 4 μl of each reaction was spotted directly onto a silica gel 60 (20×20 cm) TLC plate pre-scored to give twenty 1 cm wide lanes for lipid separation. […]
Following chromatography, the triglyceride spots were cut out and placed in a scintillation vial for counting. The percentage inhibition values were calculated relative to control and where appropriate IC50 values were derived using the 4 parameter logistic model in XL fit.
The enzyme source used for the assay was prepared from Sf21 cells infected with baculovirus expressing human DGAT1. Full length human DGAT10RF (1467 bp) (Nucleotide Accession: NM 012079; Protein Accession: NP036211) was PCR amplified from human liver cDNA (Marathon Ready) and cloned into pFastBac HTa vector (Life Technologies) containing a 6-Histidine N-terminus. […]

One may read the IC50 as the concentration needed to halve the response being measured. A low value points to greater potency. As for `COC(=O)[C@H]1CC[C@H](c2ccc(NC(=O)c3cc4ccccc4s3)cn2)CC1` [Example 114, Trans-4-{5-[(Benzo[b]thiophene-2-carbonyl)amino]-pyridin-2-yl}-cyclohexane-carboxylic acid methyl ester], the IC50 is 1.8 µM.

Turning to `COc1ccc(C)cc1NC(=O)Nc1ccc([C@H]2CC[C@](O)(CC(=O)O)CC2)cc1` [Example 137, Syn-(1-Hydroxy-4-{4-[3-(2-methoxy-5-methylphenyl)-ureido]phenyl}-cyclohexyl)-acetic acid], the IC50 amounted to 1.3 µM.
